This note sets out measurements from ChEMBL document CHEMBL5331069, “Potential of glycyrrhizic and glycyrrhetinic acids against influenza type A and B viruses: A perspective to develop new anti-influenza compounds and drug delivery systems” (Eur J Med Chem, 2023).

In brackets after ≈: the same amount, converted by molar mass. A value given as a limit tells only on which side of the number the result lay.

For data set [1], the system named is Influenza A virus. Put plainly: Antiviral activity against influenza A virus A/WSN/33(H1N1) infected in BALB/c mouse assessed as log reduction in viral load in lungs at 5 mg/kg administered intranasally for 5 days. It counts as functional. Conditions: route nas, time 5 day.
The nature of data set [2]: Cytotoxicity against MDCK cells assessed as reduction in cell viability incubated for 48 hrs. Conditions: dog. The data set is classed as toxicity, cell-based, Canis lupus familiaris.
Data set [3] deals with Influenza A virus. Put plainly: Antiviral activity against Influenza A virus A/Aichi/2/68(H3N2) infected in MDCK cells assessed as inhibition of virus-induced cytopathicity. It counts as functional, organism-based.
Another data set concerns Influenza B virus. Nature of the data set: Antiviral activity against influenza B virus B/Brisben/60/08 infected in MDCK cells assessed as reduction in viral titer by agglutination assay. It counts as functional, organism-based. Conditions: B/Brisben/60/08, MDCK.
Data set [4] deals with Influenza A virus. Nature of the data set: Antiviral activity against influenza A virus A/Pert/16/09(H3N2) infected in MDCK cells assessed as reduction in viral titer by agglutination assay. It counts as functional, organism-based.
Data set [5] relates to Influenza A virus. Put plainly: Antiviral activity against influenza A virus A/California/07/09(H1N1)pdm09 infected in MDCK cells assessed as reduction in viral titer by agglutination assay. The data set is classed as functional, organism-based. The conditions noted are these: A/California/07/09(H1N1)pdm09, MDCK.
Data set [6] relates to Influenza A virus. Nature of the data set: Antiviral activity against influenza A virus A/NIBRG/14/H5N1 infected in MDCK cells assessed as reduction in viral titer by agglutination assay. It counts as functional, organism-based. The conditions noted are these: A/NIBRG/14/H5N1, MDCK.
A short description of data set [7]: Cytotoxicity against MDCK cells assessed as reduction in cell viability incubated for 72 hrs by MTT assay. It counts as toxicity, cell-based, Canis lupus familiaris. The conditions noted are these: dog. For orientation: Tetrazolium assays rely on reduction of a dye to a coloured formazan, in cell work by metabolically active cells.
A short description of data set [8]: Cytotoxicity against MDCK cells assessed as reduction in cell viability incubated for 48 hrs by MTT assay. The conditions noted are these: dog. The data set is classed as toxicity, cell-based, Canis lupus familiaris.
Data set [9] has as its system Influenza A virus. Put plainly: Antiviral activity against influenza A virus H1N1/pdm09 infected in MDCK cells assessed as reduction in viral titer preincubated with compound for 1 hr followed by virus infection incubated for 48 hrs followed by addition of chicken erythrocytes measured after 40 mins by hemagglutination assay. The data set is classed as functional, organism-based.

Data set [10] concerns Influenza A virus. Put plainly: Antiviral activity against Influenza A virus A/WSN/33(H1N1) infected in MDCK cells assessed as inhibition of virus-induced cytopathic effect incubated for 48 hrs by CellTiter-Glo assay. The data set is classed as functional, organism-based.
Data set [11] is described as follows: Cytotoxicity against MDCK cells assessed as reduction in cell viability incubated for 48 hrs by CellTiter-Glo assay. The data set is classed as toxicity, cell-based, Canis lupus familiaris. The conditions noted are these: dog. (In general: Cellular ATP, detected with luciferase, serves as a proxy for viable cell number.)
Data set [12] in a line: Water solubility of the compound by shake flask method. The conditions noted are these: buffer. It counts as physicochemical.
A short description of data set [13]: Oral bioavailability in rat. The data set is classed as ADME, organism-based. The conditions noted are these: in vivo.
Data set [14] is described as follows: Water solubility of the compound. The data set is classed as physicochemical.

As to `COC(=O)[C@@]1(C)CC[C@]2(C)CC[C@]3(C)[C@H](C(=O)C=C4[C@@]5(C)C=C(C#N)C(=O)C(C)(C)[C@@H]5CC[C@]43C)[C@@H]2C1`, the “log(activity)” value in the data set on Influenza A virus [1] was found to be 2.3.
A word on the CC50: it is the concentration at which the toxic effect on the cells reaches its halfway point. The IC50 is the concentration needed to halve the response being measured. As to `CC1(C)[C@@H](SCCS[C@@H]2O[C@H](C(=O)O)[C@@H](O)[C@H](O)[C@H]2O)CC[C@]2(C)[C@H]3C(=O)C=C4[C@@H]5C[C@@](C)(C(=O)O)CC[C@]5(C)CC[C@@]4(C)[C@]3(C)CC[C@@H]12`, the CC50 at 48 h in [2] is greater than 250 µg/mL. Besides, the IC50 in the data set with Influenza A virus [3] was 54 µg/mL (≈ 74.7 µM).
In the case of `COC(=O)[C@H]1O[C@@H](SCCN(C(C)=O)[C@H]2CC[C@]3(C)[C@H]4C(=O)C=C5[C@@H]6C[C@@](C)(C(=O)O)CC[C@]6(C)CC[C@@]5(C)[C@]4(C)CC[C@H]3C2(C)C)[C@H](O)[C@@H](O)[C@@H]1O`, the CC50 at 48 h in data set [2] is greater than 75 µg/mL. Also, the IC50 in the data set with Influenza A virus [3] came out at 72.1 µg/mL (≈ 94.6 µM).
The term EC50 denotes the concentration that produces a half-maximal response. For the compound `CCOC(=O)C(Cc1c[nH]c2ccccc12)NC(=O)[C@H]1O[C@@H](O[C@H]2[C@H](O[C@H]3CC[C@]4(C)[C@H]5C(=O)C=C6[C@@H]7C[C@@](C)(C(=O)NC(Cc8c[nH]c9ccccc89)C(=O)OCC)CC[C@]7(C)CC[C@@]6(C)[C@]5(C)CC[C@H]4C3(C)C)O[C@H](C(=O)NC(Cc3c[nH]c4ccccc34)C(=O)OCC)[C@@H](O)[C@@H]2O)[C@H](O)[C@@H](O)[C@@H]1O` (stereo partly drawn), the EC50 in the data set on Influenza B virus amounted to 50 µg/mL (≈ 34.1 µM); in the data set on Influenza A virus [4], 33 µg/mL (≈ 22.5 µM); with Influenza A virus [5] it was 44.5 µg/mL (≈ 30.4 µM); in the data set on Influenza A virus [6] it was 17.5 µg/mL (≈ 11.9 µM). Moreover, the CC50 at 72 h in data set [7] was greater than 500 µg/mL.
For the compound `COC(=O)C(Cc1c[nH]c2ccccc12)NC(=O)[C@H]1O[C@@H](O[C@H]2[C@H](O[C@H]3CC[C@]4(C)[C@H]5C(=O)C=C6[C@@H]7C[C@@](C)(C(=O)NC(Cc8c[nH]c9ccccc89)C(=O)OC)CC[C@]7(C)CC[C@@]6(C)[C@]5(C)CC[C@H]4C3(C)C)O[C@H](C(=O)NC(Cc3c[nH]c4ccccc34)C(=O)OC)[C@@H](O)[C@@H]2O)[C@H](O)[C@@H](O)[C@@H]1O` (stereo partly drawn), the EC50 was found to be 74.4 µg/mL (≈ 52.3 µM) in the data set on Influenza A virus [4] and 20.7 µg/mL (≈ 14.5 µM) with Influenza A virus [5]. Besides, the CC50 at 72 h in data set [7] came out at 620 µg/mL (≈ 435 µM).
`COC(=O)CCCCCNC(=O)[C@H]1O[C@@H](O[C@H]2[C@H](O[C@H]3CC[C@]4(C)[C@H]5C(=O)C=C6[C@@H]7C[C@@](C)(C(=O)O)CC[C@]7(C)CC[C@@]6(C)[C@]5(C)CC[C@H]4C3(C)C)O[C@H](C(=O)NCCCCCC(=O)OC)[C@@H](O)[C@@H]2O)[C@H](O)[C@@H](O)[C@@H]1O`: the CC50 at 48 h in data set [8] came out at 408 µg/mL (≈ 379 µM). For the same compound, in the data set on Influenza A virus [9], the EC50 came to 12.7 µg/mL (≈ 11.8 µM).
On to `CC(=O)N(CCS[C@@H]1O[C@H](C(=O)O)[C@@H](O)[C@H](O)[C@H]1O)[C@H]1CC[C@]2(C)[C@H]3C(=O)C=C4[C@@H]5C[C@@](C)(C(=O)O)CC[C@]5(C)CC[C@@]4(C)[C@]3(C)CC[C@H]2C1(C)C`, for which the CC50 at 48 h in data set [2] is greater than 250 µg/mL. Also, the IC50 in the data set on Influenza A virus [3] came out at 87 µg/mL (≈ 116 µM).
In the case of `CC(=O)O[C@@H]1[C@@H](OC(C)=O)[C@H]2O[C@H]3[C@H](OC(C)=O)[C@@H](OC(C)=O)[C@@H](O[C@H]4[C@H](OC(C)=O)[C@@H](OC(C)=O)[C@@H](O[C@H]5[C@H](OC(C)=O)[C@@H](OC(C)=O)[C@@H](O[C@H]6[C@H](OC(C)=O)[C@@H](OC(C)=O)[C@@H](O[C@H]7[C@H](OC(C)=O)[C@@H](OC(C)=O)[C@@H](O[C@H]8[C@H](OC(C)=O)[C@@H](OC(C)=O)[C@@H](O[C@@H]1[C@@H](Cn1cc(CN9CCN(CCNC(=O)[C@@]%10(C)CC[C@]%11(C)CC[C@]%12(C)C(=CC(=O)[C@@H]%13[C@@]%14(C)CC[C@H](O)C(C)(C)[C@@H]%14CC[C@]%13%12C)[C@@H]%11C%10)CC9)nn1)O2)O[C@@H]8Cn1cc(CN2CCN(CCNC(=O)[C@@]8(C)CC[C@]9(C)CC[C@]%10(C)C(=CC(=O)[C@@H]%11[C@@]%12(C)CC[C@H](O)C(C)(C)[C@@H]%12CC[C@]%11%10C)[C@@H]9C8)CC2)nn1)O[C@@H]7Cn1cc(CN2CCN(CCNC(=O)[C@@]7(C)CC[C@]8(C)CC[C@]9(C)C(=CC(=O)[C@@H]%10[C@@]%11(C)CC[C@H](O)C(C)(C)[C@@H]%11CC[C@]%109C)[C@@H]8C7)CC2)nn1)O[C@@H]6Cn1cc(CN2CCN(CCNC(=O)[C@@]6(C)CC[C@]7(C)CC[C@]8(C)C(=CC(=O)[C@@H]9[C@@]%10(C)CC[C@H](O)C(C)(C)[C@@H]%10CC[C@]98C)[C@@H]7C6)CC2)nn1)O[C@@H]5Cn1cc(CN2CCN(CCNC(=O)[C@@]5(C)CC[C@]6(C)CC[C@]7(C)C(=CC(=O)[C@@H]8[C@@]9(C)CC[C@H](O)C(C)(C)[C@@H]9CC[C@]87C)[C@@H]6C5)CC2)nn1)O[C@@H]4Cn1cc(CN2CCN(CCNC(=O)[C@@]4(C)CC[C@]5(C)CC[C@]6(C)C(=CC(=O)[C@@H]7[C@@]8(C)CC[C@H](O)C(C)(C)[C@@H]8CC[C@]76C)[C@@H]5C4)CC2)nn1)O[C@@H]3Cn1cc(CN2CCN(CCNC(=O)[C@@]3(C)CC[C@]4(C)CC[C@]5(C)C(=CC(=O)[C@@H]6[C@@]7(C)CC[C@H](O)C(C)(C)[C@@H]7CC[C@]65C)[C@@H]4C3)CC2)nn1`, the IC50 in the data set on Influenza A virus [10] was 2860 nM. Besides, the CC50 at 48 h in data set [11] was greater than 100000 nM.
Usually solubility stands for how much of the substance goes into solution per volume. For orientation: bioavailability means dose-corrected exposure relative to a reference, in per cent. As for `O=c1cc(-c2ccccc2)oc2cc(O)c(O)c(O)c12` [BAICALEIN], the solubility in data set [12] was 0.15 µg/mL (≈ 0.555 µM). Further, the bioavailability in [13] amounted to 2.2%.
For `CC1(C)[C@@H](O)CC[C@]2(C)[C@H]3C(=O)C=C4[C@@H]5C[C@@](C)(C(=O)O)CC[C@]5(C)CC[C@@]4(C)[C@]3(C)CC[C@@H]12` [ENOXOLONE], the CC50 at 48 h in [2] amounted to 7.4 µg/mL (≈ 15.7 µM). Besides, the solubility in [14] is less than 10 µg/mL.
